This assay is described as follows: Odor threshold concentration (Log T / Log ODT) by gas chromatograph sniff port with panelists. Further details: species or system human. The conditions noted are these: common logarithm of odor threshold concentration of the ingredient. As for the experimental part: “High impact perfume raw materials” should be understood as perfume raw materials having a Log T<−4. The odor threshold concentration of a chemical compound is determined in part by its shape, polarity, partial charges and molecular mass. For convenience, the threshold concentration is presented as the common logarithm of the threshold concentration, i.e., Log [Threshold] (“Log T”).
The odor threshold concentration of a perfuming compound is determined by using a gas chromatograph (“GC”). Specifically, the gas chromatograph is calibrated to determine the exact volume of the perfume oil ingredient injected by the syringe, the precise split ratio, and the hydrocarbon response using a hydrocarbon standard of known concentration and chain-length distribution. The air flow rate is accurately measured and, assuming the duration of a human inhalation to last 12 seconds, the sampled volume is calculated. […] To determine the threshold concentration, solutions are delivered to the sniff port at the back-calculated concentration. A panelist sniffs the GC effluent and identifies the retention time when odor is noticed. The average across all panelists determines the odor threshold concentration of the perfuming compound. The determination of odor threshold is described in more detail in C.

`C=CCCC(=O)C1=CCCC(C)(C)C1`: the “Log ODT” value is on record as <−4. On to `CC12CCC(CC1)C(C)(C)O2`, for which the “Log ODT” value is on record as >−4. Consider `COc1nccnc1CCCC(C)C`, for which the “Log ODT” value was <−4. For the compound `CC1(C)CC=C(CCC=O)CC1`, the “Log ODT” value is given as >−4. On to `CC(=O)/C=C/C1=C(C)CCCC1(C)C`, for which the “Log ODT” value is reported as <−4. Take “1-OXA-12-CYCLOHEXADECEN-2-ONE (A) + 1-OXA-13-CYCLOHEXADECEN-2-ONE (B)”: the “Log ODT” value is >−4. With “2-METHYLBUTYL SALICYLATE (A) + PENTYL SALICYLATE (B)” the figure was >−4; with “3,5,6-TRIMETHYL-3-CYCLOHEXENE-1-CARBALDEHYDE (A) + 2,4,6-TRIMETHYL-3-CYCLOHEXENE-1 -CARBALDEHYDE (B)”, >−4.

“3,7-DIMETHYL-2,6-NONADIENENITRILE (A) + 3,7-DIMETHYL-3,6-NONADIENENITRILE (B)”: the “Log ODT” value is given as >−4. Take “3-(4-ETHYLPHENYL)-2,2-DIMETHYLPROPANAL (A) + 3-(2-ETHYLPHENYL)-2,2-DIMETHYLPROPANAL (B)”: the “Log ODT” value is >−4. As to “10-UNDECENAL (A) + (9E)-9-UNDECENAL (B) + (9Z)-9-UNDECENAL (C)”, the “Log ODT” value is reported as <−4.

For the compound `C/C=C/C(=O)[C@@H]1[C@@H](C)C=CCC1(C)C` (racemic), the “Log ODT” value is given as <−4. On to `CC(C)=CCCC(C)C=O` (racemic), for which the “Log ODT” value was >−4.

For `C=CC(C)CCCC(C)(C)O` (racemic), the “Log ODT” value is recorded as >−4. For the compound `CC(C)CCCC(C)CCO` (racemic), the “Log ODT” value is >−4. For the compound `CC(C)=CCCC(C)CC=O` (racemic), the “Log ODT” value is >−4. In the case of `C=CC(C)(CCC=C(C)C)OC(C)=O` (racemic) [(+−)-1,5-DIMETHYL-1-VINYL-4-HEXENYL ACETATE], the “Log ODT” value was >−4. Regarding `CC1=CCC(C(C)(C)S)CC1` (racemic) [(+−)-2-(4-METHYL-3-CYCLOHEXEN-1-YL)-2-PROPANETHIOL], the “Log ODT” value is recorded as <−4. For `CCCCCCCCCC(C)C=O` (racemic) [(+−)-2-METHYLUNDECANAL], the “Log ODT” value is listed as <-4.

Turning to `CC(C)c1cccc(C(C)CC=O)c1` (racemic) [(+−)-3-(3-ISOPROPYL-1-PHENYL)BUTANAL], the “Log ODT” value is given as <−4. For the compound `CCCCCCCC1CCC(=O)O1` (racemic) [(+−)-5-HEPTYLDIHYDRO-2(3H)-FURANONE], the “Log ODT” value is listed as <−4. With `CC/C=C(\C)C(O)CCCCC` (racemic) [(+−)-(E)-4-METHYL-3-DECEN-5-OL], the “Log ODT” value is reported as >−4. On to `CCOC(=O)C(C)CC` (racemic) [(+−)-ETHYL 2-METHYLBUTANOATE], for which the “Log ODT” value was >−4. Regarding `CCCCC[C@H]1C(=O)CC[C@@H]1CC(=O)OC` (racemic) [METHYL 2-((1RS,2RS)-3-OXO-2-PENTYLCYCLOPENTYL)ACETATE], the “Log ODT” value is listed as >−4. For `CC1=CCC2C[C@@H]1C2(C)C` (single isomer, unassigned; (-)) the value was >−4. On to `c1ccc(Oc2ccccc2)cc1` [1,1′-OXYDIBENZENE], for which the “Log ODT” value is >−4.

As to `COc1ccc(C)cc1` [1-METHOXY-4-METHYLBENZENE], the “Log ODT” value is given as >−4. Regarding `COc1ccc2ccccc2c1` [2-METHOXYNAPHTHALENE], the “Log ODT” value was <−4. Turning to `CC(=O)OCCc1ccccc1` [2-PHENYLETHYL ACETATE], the “Log ODT” value was >−4. On to `CC(=O)OCCC(C)CCC=C(C)C` (stereo not drawn) [3,7-DIMETHYL-6-OCTENYL ACETATE], for which the “Log ODT” value is >−4. With `CC1=CC2CC(C=O)C1CC2C(C)C` (stereo not drawn) [8-ISOPROPYL-6-METHYL-BICYCLO[2.2.2]OCT-5-ENE-2-CARBALDEHYDE] the figure was <−4; with `CC(=O)O[C@@H]1CC2CC[C@]1(C)C2(C)C` [(1R,2R)-1,7,7-TRIMETHYL-BICYCLO[2.2.1]HEPT-2-YL ACETATE], >−4; with `COCCc1ccccc1` [(2-METHOXYETHYL)BENZENE], >−4.

On to `CC/C=C\CCOC(C)=O` [(Z)-3-HEXENYL ACETATE], for which the “Log ODT” value is >−4.

`CC/C=C\CCOC(=O)C(C)C` [(Z)-3-HEXENYL ISOBUTYRATE]: the “Log ODT” value is reported as >−4. With `CC1(C)CCC[C@]2(C)[C@H]3CCO[C@]3(C)CC[C@@H]12` [(−)-(3AR,5AS,9AS,9BR)-3A,6,6,9A-TETRAMETHYLDODECAHYDRONAPHTHO[2,1-B]FURAN], the “Log ODT” value is <−4. Consider `CCCCCCCCCC=O` [DECANAL], for which the “Log ODT” value is given as >−4. For `CCCCCCOC(=O)c1ccccc1O` [HEXYL 2-HYDROXYBENZOATE], the “Log ODT” value is reported as >-4. Take `CCCCCCOC(C)=O` [HEXYL ACETATE]: the “Log ODT” value is given as >−4.

For `CCCCCCCCCC(C)=O` [Microcapsules 2-UNDECANONE, 2-UNDECANONE], the “Log ODT” value is on record as >−4. For the compound `CCCCCCCC=O` [OCTANAL], the “Log ODT” value is >−4. In the case of `O=C1CCCCCCCCCCCCCCO1` [OXACYCLOHEXADECAN-2-ONE], the “Log ODT” value is recorded as >−4. In the case of “(1RS,2RS)-2,4-DIMETHYL-3-CYCLOHEXENE-1-CARBALDEHYDE (A) + (1RS,2SR)-2,4-DIMETHYL-3-CYCLOHEXENE-1-CARBALDEHYDE (B)”, the “Log ODT” value is reported as >−4. Turning to “(2RS,4SR)-4-METHYL-2-(2-METHYL-1-PROPEN-1-YL)TETRAHYDRO-2H-PYRAN (A) + (2RS,4RS)-4-METHYL-2-(2-METHYL-1-PROPEN-1-YL)TETRAHYDRO-2H-PYRAN (B)”, the “Log ODT” value is >−4. Take “(2Z)-1,1-DIETHOXY-3,7-DIMETHYL-2,6-OCTADIENE (A) + (2E)-1,1-DIETHOXY-3,7-DIMETHYL-2,6-OCTADIENE (B)”: the “Log ODT” value is listed as >−4. For the compound “(2Z)-2-TRIDECENENITRILE (A) + (3Z)-3-TRIDECENENITRILE (B) + (3E)-3-TRIDECENENITRILE (C) + (2E)-2-TRIDECENENITRILE (D)”, the “Log ODT” value is listed as <−4. With “(+)-(3S)-3-[(1R)-4-METHYL-3-CYCLOHEXEN-1-YL]BUTANAL (A) + (+)-(3R)-3-[(1R)-4-METHYL-3-CYCLOHEXEN-1-YL]BUTANAL”, the “Log ODT” value is reported as >−4. Regarding “(+−)-4-METHYLENE-2-PHENYLTETRAHYDRO-2H-PYRAN (A) + (+−)-4-METHYL-6-PHENYL-3,6-DIHYDRO-2H-PYRAN (B) + (+−)-4-METHYL-2-PHENYL-3,6-DIHYDRO-2H-PYRAN (C)”, the “Log ODT” value is on record as <−4. With “(+−)-(3E)-3-METHYL-4-(2,6,6-TRIMETHYL-2-CYCLOHEXEN-1-YL)-3-BUTEN-2-ONE (A) + (+−)-(1E)-1-(2,6,6-TRIMETHYL-2-CYCLOHEXEN-1-YL)-1-PENTEN-3-ONE (B)” the figure was <−4; with “.ALPHA.-DIHYDROTERPINEOL (A) + .BETA.-DIHYDROTERPINEOL (B)”, >−4; with “TRICYCLO[5.2.1.0~2,6~]DEC-3-EN-8-YL ACETATE (A) + TRICYCLO[5.2.1.0~2,6~]DEC-4-EN-8-YL ACETATE (B)”, >−4.

Source of the values: patent US12480075B2, “Perfume delivery system” (FIRMENICH SA, priority 2019, dated 2025).
